Experimental data: the NIST ThermoML archive (doi:10.1007/s10765-011-1149-x)

Experiment: xn = mol fraction of the nth substance listed
Conditions: 101 kPa, Liquid, Vibrating tube method

Cc1cc(C)nc(C)c1 [2,4,6-trimethylpyridine] + OCCO
Conditions	mass density [kg/m3]
276.15 K, x1 = 0.0227	1116.64
276.15 K, x1 = 0.0509	1106.81
276.15 K, x1 = 0.1024	1090.72
276.15 K, x1 = 0.1996	1065.35
276.15 K, x1 = 0.2983	1043.61
276.15 K, x1 = 0.4014	1024.29
276.15 K, x1 = 0.4958	1008.47
276.15 K, x1 = 0.5984	991.05
276.15 K, x1 = 0.6974	975.68
276.15 K, x1 = 0.7927	959.81
276.15 K, x1 = 0.8896	944.84
277.15 K, x1 = 0.0227	1115.94
277.15 K, x1 = 0.0509	1106.1
277.15 K, x1 = 0.1996	1064.61
277.15 K, x1 = 0.2983	1042.81
277.15 K, x1 = 0.4014	1023.47
277.15 K, x1 = 0.4958	1007.63
277.15 K, x1 = 0.5984	990.18
277.15 K, x1 = 0.6974	974.81
277.15 K, x1 = 0.7927	958.95
277.15 K, x1 = 0.8896	944
277.16 K, x1 = 0.1024	1090
283.15 K, x1 = 0.0227	1111.72
283.15 K, x1 = 0.0509	1101.82
283.15 K, x1 = 0.1996	1060.1
283.15 K, x1 = 0.2983	1038.02
283.15 K, x1 = 0.4014	1018.5
283.15 K, x1 = 0.5984	985
283.15 K, x1 = 0.7927	953.81
283.15 K, x1 = 0.8896	938.89
283.16 K, x1 = 0.1024	1085.61
283.16 K, x1 = 0.4958	1002.53
283.16 K, x1 = 0.6974	969.63
288.15 K, x1 = 0.0227	1108.21
288.15 K, x1 = 0.0509	1098.26
288.15 K, x1 = 0.1024	1081.94
288.15 K, x1 = 0.1996	1056.23
288.15 K, x1 = 0.2983	1034.02
288.15 K, x1 = 0.4014	1014.34
288.15 K, x1 = 0.4958	998.27
288.15 K, x1 = 0.5984	980.68
288.15 K, x1 = 0.6974	965.31
288.15 K, x1 = 0.7927	949.52
288.15 K, x1 = 0.8896	934.64
293.14 K, x1 = 0.1024	1078.26
293.15 K, x1 = 0.0227	1104.68
293.15 K, x1 = 0.0509	1094.67
293.15 K, x1 = 0.1996	1052.33
293.15 K, x1 = 0.2983	1029.98
293.15 K, x1 = 0.4014	1010.15
293.15 K, x1 = 0.4958	993.97
293.15 K, x1 = 0.5984	976.33
293.15 K, x1 = 0.6974	960.96
293.15 K, x1 = 0.7927	945.2
293.15 K, x1 = 0.8896	930.36
298.14 K, x1 = 0.0227	1101.13
298.14 K, x1 = 0.0509	1091.07
298.14 K, x1 = 0.1024	1074.55
298.14 K, x1 = 0.2983	1025.93
298.14 K, x1 = 0.4958	989.66
298.14 K, x1 = 0.8896	926.07
298.15 K, x1 = 0.1996	1048.43
298.15 K, x1 = 0.4014	1005.94
298.15 K, x1 = 0.5984	971.96
298.15 K, x1 = 0.6974	956.59
298.15 K, x1 = 0.7927	940.86
303.15 K, x1 = 0.0227	1097.58
303.15 K, x1 = 0.0509	1087.45
303.15 K, x1 = 0.1024	1070.84
303.15 K, x1 = 0.1996	1044.52
303.15 K, x1 = 0.2983	1021.84
303.15 K, x1 = 0.4014	1001.71
303.15 K, x1 = 0.4958	985.33
303.15 K, x1 = 0.5984	967.57
303.15 K, x1 = 0.6974	952.2
303.15 K, x1 = 0.7927	936.51
303.15 K, x1 = 0.8896	921.76
308.14 K, x1 = 0.4014	997.46
308.14 K, x1 = 0.5984	963.16
308.15 K, x1 = 0.0227	1094.01
308.15 K, x1 = 0.0509	1083.83
308.15 K, x1 = 0.1024	1067.1
308.15 K, x1 = 0.1996	1040.64
308.15 K, x1 = 0.2983	1017.74
308.15 K, x1 = 0.4958	980.98
308.15 K, x1 = 0.6974	947.78
308.15 K, x1 = 0.7927	932.13
308.15 K, x1 = 0.8896	917.43
313.14 K, x1 = 0.1024	1063.34
313.14 K, x1 = 0.1996	1036.74
313.14 K, x1 = 0.2983	1013.62
313.14 K, x1 = 0.4014	993.19
313.14 K, x1 = 0.4958	976.61
313.14 K, x1 = 0.5984	958.73
313.15 K, x1 = 0.0227	1090.43
313.15 K, x1 = 0.0509	1080.18
313.15 K, x1 = 0.6974	943.35
313.15 K, x1 = 0.7927	927.74
313.15 K, x1 = 0.8896	913.09
